Consider 34 molecules from patent publication US8609675B2, “Fused Tricyclic Compounds as novel mTOR inhibitors” (Merck Sharp & Dohme Corp., priority 2009, dated 2013).

Structures are written as SMILES.

The experiment concerns the target human mTOR enzyme (Homo sapiens, UniProt P42345). Nature of the experiment: mTOR Kinase Assay. Format: biochemical. The note with it: 5 μM ATP, 0.1 μM GST-S6K, rated A, B or C. The protocol: The mTOR assay buffer contained 10 mM hepes (pH 7.4), 50 mM NaCl, 100 μg/ml BSA, 50 mM β-glycerophosphate, 10 mM MnCl2 and 0.5 mM DTT. 20 ng of human mTOR enzyme was preincubated with the compound for 10 minutes. 5 μM ATP and 0.1 μM GST-S6K was added. The reaction was incubated for one hour at 30° C. Anti phospho p70-S6K (about 1.7 ng/well) and anti GST-XL665 (1:1 Ratio with the substrate GST-56K) were added after incubating. The plates were read at least 2 hours after adding the anti phospho p70-S6K and the anti GST-XL665.
IC50 DETERMINATIONS: Dose-response curves were plotted from the inhibition data generated, each in duplicate, from 8 point serial dilutions of inhibitory compounds. Concentration of compound was plotted against % kinase activity, calculated by CPM of treated samples divided by CPM of untreated samples. To generate IC50 values, the dose-response curves were then fitted to a standard sigmoidal curve and IC50 values were derived by nonlinear regression analysis.
On to `O=C([C@H](O)CO)N1CCC(c2nc3c(-c4ccc(-c5ccccc5)nc4)cnn3c3[nH]ccc23)CC1` [Compound 24, (R)-2,3-dihydroxy-1-(4-(3-(6-phenylpyridin-3-yl)-8H-pyrazolo[1,5-a]pyrrolo[3,2-e]pyrimidin-5-yl)piperidin-1-yl)propan-1-one], for which the IC50 (in general, the concentration needed to halve the response being measured) lay in the range of 1 to 10 nM.

In the case of `C[C@@H](O)C(=O)N1CCC(Oc2nc3c(-c4ccc(-c5ccccc5)nc4)cnn3c3[nH]ccc23)CC1` [Compound 35, (R)-2-hydroxy-1-(4-(3-(6-phenylpyridin-3-yl)-8H-pyrazolo[1,5-a]pyrrolo[3,2-e]pyrimidin-5-yloxy)piperidin-1-yl)propan-1-one], the IC50 was in the range of 10 to 100 nM.

As for `O=S1(=O)CCC(c2nc3c(-c4cnc5ccc(F)cc5c4)cnn3c3[nH]ncc23)CC1` [Compound 16], the IC50 lay within 10 to 100 nM.

As to `O=S1(=O)CCC(c2nc3c(-c4ccc(-c5cccnc5)nc4)cnn3c3[nH]ncc23)CC1` [Compound 10], the IC50 is 10 to 100 nM.

`O=S1(=O)CCC(c2nc3c(-c4ccc(-c5ccccc5)nc4)cnn3c3[nH]ccc23)CC1` [Compound 9]: the IC50 lay in the range of 1 to 10 nM.

With `Cc1n[nH]c2c1c(C1CCS(=O)(=O)CC1)nc1c(-c3cnc4ccc(F)cc4c3)cnn12` [Compound 21], the IC50 fell in the range of 1 to 10 nM.

The molecule `Cc1n[nH]c2c1c(CC1CCC(C)(C(=O)O)CC1)nc1c(-c3ccc(-c4ccccc4)nc3)cnn12` (stereo not shown) [Compound 3, 1-methyl-4-((3-methyl-6-(6-phenylpyridin-3-yl)-1H-dipyrazolo[1,5-a:4′,3′-e]pyrimidin-4-yl)methyl)cyclohexanecarboxylic acid] came in with an IC50 of 1 to 10 nM.

Regarding `O=C(O)CC1CCC(c2nc3c(-c4ccc(-c5ccccc5)nc4)cnn3c3[nH]ccc23)CC1` (mixture of isomers) [Compound 29], the IC50 was less than 1 nM.

With `Cc1n[nH]c2c1c(C1CCS(=O)(=O)CC1)nc1c(-c3cnc4ccccc4c3)cnn12` [Compound 1, 3-(Quinolin-3-yl)-5-(1,1-dioxo-tetrahydro-2H-thiopyran-4-yl)-6-methyl-dipyrazolo[1,5-a:4′,3′-e]pyrimidine], the IC50 lay in the range of 10 to 100 nM.

The molecule `Cc1n[nH]c2c1c(C1CCC(CC(=O)O)CC1)nc1c(-c3ccc(-c4ccccc4)nc3)cnn12` (stereo not shown) [Compound 22, 2-(4-(3-methyl-6-(6-phenylpyridin-3-yl)-1H-dipyrazolo[1,5-a:4′,3′-e]pyrimidin-4-yl)cyclohexyl)acetic acid] came in with an IC50 of less than 1 nM.

Consider `CS(=O)(=O)N1CCC(c2nc3c(-c4ccc(-c5ccccc5)nc4)cnn3c3[nH]ccc23)C1` (stereo not shown) [Compound 27, 5-(1-(methylsulfonyl)pyrrolidin-3-yl)-3-(6-phenylpyridin-3-yl)-8H-pyrazolo[1,5-a]pyrrolo[3,2-e]pyrimidine], for which the IC50 is 1 to 10 nM.

On to `Cc1n[nH]c2c1c(CC1CCC(C(=O)O)CC1)nc1c(-c3ccc(-c4cnn(C)c4)nc3)cnn12` (stereo not shown) [Compound 6, 4-((3-methyl-6-(6-(1-methyl-1H-pyrazol-4-yl)pyridin-3-yl)-1H-dipyrazolo[1,5-a:4′,3′-e]pyrimidin-4-yl)methyl)cyclohexanecarboxylic acid], for which the IC50 is 1 to 10 nM.

In turn, `Cc1n[nH]c2c1c(CC1CCC(C)(C(=O)O)CC1)nc1c(-c3ccc(-c4cnn(C)c4)nc3)cnn12` (stereo not shown) [Compound 4] came in with an IC50 of 1 to 10 nM.

Regarding `Cc1n[nH]c2c1c(CC1CCC(C(=O)O)CC1)nc1c(-c3ccc(-c4ccccc4)nc3)cnn12` (stereo not shown) [Compound 5, 4-((3-methyl-6-(6-phenylpyridin-3-yl)-1H-dipyrazolo[1,5-a:4′,3′-e]pyrimidin-4-yl)methyl)cyclohexanecarboxylic acid], the IC50 was in the range of 1 to 10 nM.

The molecule `O=S1(=O)CCN(c2nc3c(-c4cnc5ccccc5c4)cnn3c3[nH]ccc23)CC1` [Compound 13] gave an IC50 of 1 to 10 nM.

Consider `Cc1n[nH]c2c1c(CC1CCC(C)(C(=O)O)CC1)nc1c(-c3ccc(-c4cccnc4)nc3)cnn12` (stereo not shown) [Compound 2], for which the IC50 fell in the range of 1 to 10 nM.

For the molecule `O=S1(=O)CCC(c2nc3c(-c4ccc(-c5ccccc5)nc4)cnn3c3[nH]cc(Cl)c23)CC1` [Compound 32], the IC50 fell in the range of 1 to 10 nM.

For `Cc1n[nH]c2c1c(C1CCS(=O)(=O)CC1)nc1c(-c3ccc(-c4cccnc4)nc3)cnn12` [Compound 19], the half-maximal inhibitory concentration (IC50) was 1 to 10 nM.

On to `Cc1n[nH]c2c1c(C1CCN(C(=O)[C@@H](C)O)CC1)nc1c(-c3ccc(-c4ccccc4)nc3)cnn12` [Compound 30, (R)-2-hydroxy-1-(4-(3-methyl-6-(6-phenylpyridin-3-yl)-1H-dipyrazolo[1,5-a:4′,3′-e]pyrimidin-4-yl)piperidin-1-yl)propan-1-one], for which the IC50 fell in the range of 1 to 10 nM.

Molecule `CCc1n[nH]c2c1c(N1CCS(=O)(=O)CC1)nc1c(-c3cnc4ccccc4c3)cnn12` [Compound 17] had an IC50 of 1 to 10 nM.

`O=S1(=O)CCC(c2nc3c(-c4cnc5ccccc5c4)cnn3c3[nH]ccc23)CC1` [Compound 11] returned an IC50 of 1 to 10 nM.

`O=C(O)[C@H]1CC[C@H](c2nc3c(-c4ccc(-c5ccccc5)nc4)cnn3c3[nH]ccc32)CC1` [Compound 23, (trans)-4-(3-(6-phenylpyridin-3-yl)-8H-pyrazolo[1,5-a]pyrrolo[3,2-e]pyrimidin-5-yl)cyclohexanecarboxylic acid] yielded an IC50 of 1 to 10 nM.

For the molecule `Cc1n[nH]c2c1c(CNC1CCOCC1)nc1c(-c3cnc4ccccc4c3)cnn12` [Compound 26, N-((3-methyl-6-(quinolin-3-yl)-1H-dipyrazolo[1,5-a:4′,3′-e]pyrimidin-4-yl)methyl)tetrahydro-2H-pyran-4-amine], the IC50 fell in the range of 1 to 10 nM.

As to `O=S1(=O)CCC(c2nc3c(-c4cnc5ccc(F)cc5c4)cnn3c3[nH]ccc23)CC1` [Compound 12], the IC50 was 1 to 10 nM.

As to `Cc1n[nH]c2c1c(C1CCS(=O)(=O)CC1)nc1c(-c3ccc(-c4ccccc4)nc3)cnn12` [Compound 20], the concentration for half-maximal inhibition (IC50) fell in the range of 1 to 10 nM.

`C[C@@H](O)C(=O)N1CCC(Cc2nc3c(-c4ccc(-c5ccccc5)nc4)cnn3c3[nH]ccc23)CC1` [Compound 33, (R)-2-hydroxy-1-(4-((3-(6-phenylpyridin-3-yl)-8H-pyrazolo[1,5-a]pyrrolo[3,2-e]pyrimidin-5-yl)methyl)piperidin-1-yl)propan-1-one] returned an IC50 of 10 to 100 nM.

In turn, `C[C@@H](O)C(=O)N1CCC(c2nc3c(-c4ccc(-c5ccccc5)nc4)cnn3c3[nH]cc(Cl)c23)CC1` [Compound 34, (R)-1-(4-(6-chloro-3-(6-phenylpyridin-3-yl)-8H-pyrazolo[1,5-a]pyrrolo[3,2-e]pyrimidin-5-yl)piperidin-1-yl)-2-hydroxypropan-1-one] had an IC50 of 1 to 10 nM.

`O=S1(=O)CCC(c2nc3c(-c4ccc(-c5ccccc5)nc4)cnn3c3[nH]ncc23)CC1` [Compound 15] showed an IC50 of 1 to 10 nM.

For `O=S1(=O)CCC(c2nc3c(-c4cnc5ccc(F)cc5c4)cnn3c3[nH]cc(Cl)c23)CC1` [Compound 31], the IC50 is 1 to 10 nM.

For the molecule `C[C@@H](O)C(=O)N1CCC(c2nc3c(-c4ccc(-c5ccccc5)nc4)cnn3c3[nH]ccc23)CC1` [Compound 25, (R)-2-hydroxy-1-(4-(3-(6-phenylpyridin-3-yl)-8H-pyrazolo[1,5-a]pyrrolo[3,2-e]pyrimidin-5-yl)piperidin-1-yl)propan-1-one], the IC50 lay within 1 to 10 nM.

With `CC1(C(=O)O)CC=C(c2nc3c(-c4ccc(-c5ccccc5)nc4)cnn3c3[nH]ccc23)CC1` (stereo not shown) [Compound 28], the IC50 lay in the range of 1 to 10 nM.

The molecule `Cc1n[nH]c2c1c([C@H]1CC[C@H](C(=O)O)CC1)nc1c(-c3ccc(-c4ccccc4)nc3)cnn12` [Compound 8, (1R,4R)-4-(3-methyl-6-(6-phenylpyridin-3-yl)-1H-dipyrazolo[1,5-a:4′,3′-e]pyrimidin-4-yl)cyclohexanecarboxylic acid] displayed an IC50 of less than 1 nM.

Molecule `Cc1n[nH]c2c1c(C1CCS(=O)(=O)CC1)nc1c(-c3cnc4ccccc4c3)cnn12` [Compound 18] returned an IC50 of 1 to 10 nM.

`Cc1n[nH]c2c1c([C@H]1CC[C@H](C(=O)O)CC1)nc1c(-c3cnc4ccccc4c3)cnn12` [Compound 7] came in with an IC50 of 10 to 100 nM.
